Data from patent US10730826B2, “Ketone inhibitors of lysine gingipain” (CORTEXYME, INC., priority 2016, dated 2020).
Several values for one entry are separate records, joined by “and”; a condition that tells them apart may be missing. Equal values may be shown once. Read-outs that look alike come from different tables or passages of the source.

Experiments:
[1] = target: cathepsin Z (Homo sapiens (Human), UniProt Q9UBR2); experiment: Cathepsin Z inhibition assay; format: biochemical; details: Table 4; read-out: IC50 (nM) CatZ
Method: (§1) The capacities of compounds of the present invention to inhibit the activity of cathepsins B, H, K, L, and S were measured in similar assays. Boc-Leu-Arg-Arg-AMC (20 μM) in sodium acetate buffer (50 mM, pH 5.5) containing DTT (1 mM) and EDTA (2 mM) was used for the Cathepsin B assay. L-Arg-AMC (20 μM) in sodium acetate buffer (50 mM, pH 5.5) containing DTT (1 mM) and EDTA (2 mM) was used for the Cathepsin H assay. Z-Phe-Arg-AMC (10 μM) in HEPES buffer (50 mM, pH 7.4) containing DTT (2.5 mM) and EDTA (1 mM) was used for the Cathepsin K assay. Z-Phe-Arg-AMC (20 μM) in sodium acetate buffer (50 mM, pH 5.5) containing DTT (1 mM) and EDTA (2 mM) was used for the Cathepsin L assay. Z-Leu-Arg-AMC (10 μM) in sodium acetate buffer (25 mM, pH 4.5) containing DTT (2.5 mM) and NaCl (50 mM) was used for the Cathepsin S assay. The capacities of the compounds to inhibit the activity of cathepsins F, V, and Z were also measured.
(§2) Further assays to measure the inhibitory activity of compounds of the present invention against Kgp and cathepsins B, H, K, L, and S were conducted as described in Example 66. The capacities of the compounds to inhibit the activity of cathepsins F, V, and Z were also measured.

[2] = target: Cathepsin B (Homo sapiens (Human), UniProt P07858); experiment: Cathepsin B inhibition assay; format: biochemical; details: read-out: IC50 (nM) CatB
Method: as §1, §2

[3] = target: Cathepsin K (Homo sapiens (Human), UniProt P43235); experiment: Cathepsin K inhibition assay; format: biochemical; details: read-out: IC50 (nM) CatK
Method: as §1, §2

[4] = target: cathepsin F (Homo sapiens (Human), UniProt Q9UBX1); experiment: Cathepsin F inhibition assay; format: biochemical; details: Table 4; read-out: IC50 (nM) CatF
Method: as §1, §2

[5] = target: cathepsin V (Homo sapiens (Human), UniProt O60911); experiment: Cathepsin V inhibition assay; format: biochemical; details: Table 4; read-out: IC50 (nM) CatV
Method: as §1, §2

[6] = target: Cathepsin H (Homo sapiens (Human), UniProt P09668); experiment: Cathepsin H inhibition assay; format: biochemical; details: read-out: IC50 (nM) CatH
Method: as §1, §2

[7] = target: Cathepsin S (Homo sapiens (Human), UniProt P25774); experiment: Cathepsin S inhibition assay; format: biochemical; details: read-out: IC50 (nM) CatS
Method: as §1, §2

[8] = target: Cathepsin L (Homo sapiens (Human), UniProt P07711); experiment: Cathepsin L inhibition assay; format: biochemical; details: read-out: IC50 (nM) CatL
Method: as §1, §2

[9] = target: lysine gingipain (Kgp) (Porphyromonas gingivalis (Bacteroides gingivalis), UniProt P72194); experiment: biochemical; format: biochemical; details: IC50 (nM) Kgp
Method: (§3) The specific assay conditions were as follows. Buffer: pH=7.5, 100 mM Tris-HCl, 75 mM NaCl, 2.5 mM CaCl2), 10 mM cysteine, 1% DMSO after all additions. Protein: 0.1 nM Kgp, isolated from culture of Porphyromonas gingivalis, as described by Pike et al. (J. Biol. Chem. 1994, 269(1), 406), and Potempa and Nguyen (Current Protocols in Protein Science. 2007, 21.20.1-21.20.27). Fluorogenic substrate: 10 μM Z-His-Glu-Lys-MCA. Time=90 minutes. Temperature=37° C.
as §2

[10] = Pharmacokinetics in male CD-1 mice dosed p.o.; format: in vivo; details: p.o. 10 mg/kg, compared to reference compound 73
[11] = system: lysine gingipain (Kgp); experiment: biochemical; format: biochemical, Porphyromonas gingivalis; details: as compared to reference compound 73
Method: as §3, §2

[12] = target: T1, Kgp (Porphyromonas gingivalis (Bacteroides gingivalis), UniProt Q51817); experiment: Activity probe labelling of Kgp in P. gingivalis-infected Jurkat cells (SDS-PAGE); format: cell-based; details: infected Jurkat cells, preincubation before probe 15a
Description: The identity of this labeled protein in P. gingivalis-infected cells was confirmed to be Kgp by Western blot.

[13] = target: T1, Kgp; experiment: Cy5 activity-based probe detection of Kgp in P. gingivalis lysate; format: binding
Method: It has a warhead that binds to the Kgp active site, a peptide-based core, and a Cy5 fluorophore for detection. Labeled target proteins can be visualized by biochemical separation of a sample with fractionation by 2-D gel electrophoresis and detection of fluorescent signals from Cy5 at the appropriate excitation and emission wavelength. Incubation of a fixed concentration of the probe following binding of Kgp to a test compound (e.g., a candidate Kgp inhibitor) results in binding of the activity probe to Kgp active sites not already bound by the test compound.
10^8 bacteria were collected and centrifuged at 5000 g for 10 min at 4° C., and the supernatant was discarded. The bacterial cell pellet was lysed with 1 mL of B-Per lysis buffer (Thermo Fischer) on ice for 10 min, then centrifuged for 10 min at 14000 g, 4° C. Supernatant-containing protein lysate was collected. Biological samples were lysed with B-Per lysis buffer for 10 min at 4° C.
Biological samples, P. gingivalis lysate or purified Kgp were incubated with quenchable Cy5 probe compound 71 (1 μM) for 1 h at 37° C. with shaking. Then, samples were denatured with NUPAGE LDS sample buffer (Thermo Fisher) containing 50 mM DTT at 95° C. for 10 min and subjected to SDS-PAGE electrophoresis using a Criterion 4-15% precast gel (Bio-Rad) and Tris/Glycine/SDS running buffer (Bio-Rad). The gel was run at 75V for 10 min and then 125V for 1.5 h. The gel was then removed from the plastic cassette and subjected to Cy5 visualization with a ChemiDoc imaging system (Bio-Rad).
Samples were labeled with quenchable Cy5 probe compound 71 (1 μM) for 1 h at 37° C. with shaking. For immunoprecipitation of Cy5 labeled Kgp, the samples were then incubated with 10 μg of rabbit polyclonal CAB102 antibody with rotation overnight at 4° C. Then, samples were incubated with prewashed Dynabead Protein G beads with rotation for 20 min at room temperature. The samples were washed 4 times with 200 μL of washing buffer, using a magnetic rack. […]

[14] = in vivo, po; cited from earlier work

Compound	IC50 ([2]; Table 4) [nM]	IC50 ([3]; Table 4) [nM]	IC50 [4] [nM]	IC50 [5] [nM]	IC50 ([6]; Table 4) [nM]	IC50 ([7]; Table 4) [nM]	IC50 ([8]; Table 4) [nM]	IC50 ([9]; Table 4) [nM]	also measured
NCCCC[C@H](NC(=O)C1CCCC1)C(=O)COc1c(F)c(F)cc(F)c1F (stereo in doubt) [Compound 73, N-[7-amino-2-oxo-1-(2,3,5,6-tetrafluorophenoxy)heptan-3-yl]cyclopentanecarboxamide, reference compound]	485	20	500	5720	110	> 10000	700	–	IC50 [1]: > 10000 nM; IC50 ([2]; Table 3): 485 nM; IC50 ([3]; Table 3): 20 nM; IC50 ([6]; Table 3): 110 nM; IC50 ([7]; Table 3): 9980 nM; IC50 ([8]; Table 3): 700 nM
NCCCCC(NC(=O)C1CCCC1)C(=O)COc1c(F)cccc1F (stereo not drawn) [Compound 2a]	> 10000	2290	–	> 10000	1550	> 10000	> 10000	< 0.05	IC50 ([9]; Table 3): ≤ 0.05 nM and 0.11 nM; IC50 ([2]; Table 3): > 10000 nM; IC50 ([3]; Table 3): 2290 nM; IC50 ([6]; Table 3): 1550 nM; IC50 ([7]; Table 3): > 100000 nM; IC50 ([8]; Table 3): > 100000 nM
NCCCCC(NC(=O)C1CCCC1)C(=O)COC(C(F)(F)F)C(F)(F)F (stereo not drawn) [Compound 18a]	> 10000	> 10000	> 10000	> 10000	> 10000	> 10000	> 10000	0.5	IC50 ([9]; Table 3): 0.5 nM
COC(C)(C)C(=O)N[C@@H](CCCCN)C(=O)COc1c(F)ccc(F)c1F [Compound 47, (S)—N-(7-amino-2-oxo-1-(2,3,6-trifluorophenoxy)heptan-3-yl)-2-methoxy-2-methylpropanamide]	–	–	–	–	–	–	–	–	concentrations in the brain and cerebrospinal fluid (CSF) [10]: increased concentrations in the brain and cerebrospinal fluid (CSF); oral availability [10]: improved oral availability; plasma concentrations [10]: increased plasma concentrations; selectivity for Kgp over endogenous cathepsins [11]: far more selective
COC(C)(C)C(=O)NC(CCCCN)C(=O)COc1c(F)ccc(F)c1F (stereo not drawn) [Compound 47a]	> 10000	9000	> 10000	> 10000	> 10000	> 10000	> 10000	0.06	–
NCCCCC(NC(=O)c1ccccn1)C(=O)COc1c(F)ccc(F)c1F (stereo not drawn) [Compound 50a]	> 10000	1000	> 10000	> 10000	> 10000	> 10000	> 10000	0.09	–
NCCCCC(NC(=O)c1ccc(F)nc1)C(=O)COc1ccon1 (stereo not drawn) [Compound 55a]	> 10000	1000	–	> 10000	> 10000	> 10000	6380	0.12	–
COC(C)(C)C(=O)N[C@@H](CCCCN)C(=O)COC(C(F)(F)F)C(F)(F)F [Compound 69, (S)—N-(7-amino-1-((1,1,1,3,3,3-hexafluoropropan-2-yl)oxy)-2-oxoheptan-3-yl)-2-methoxy-2-methylpropanamide]	–	–	–	–	–	–	–	–	concentrations in the brain and cerebrospinal fluid (CSF) [10]: increased concentrations in the brain and cerebrospinal fluid (CSF); oral availability [10]: improved oral availability; plasma concentrations [10]: increased plasma concentrations; selectivity for Kgp over endogenous cathepsins [11]: far more selective
COC(C)(C)C(=O)NC(CCCCN)C(=O)COC(C(F)(F)F)C(F)(F)F (stereo not drawn) [Compound 69a]	> 10000	> 10000	> 10000	–	> 10000	> 10000	> 10000	0.21	IC50 [1]: > 10000 nM
C[N+]1=C(/C=C/C=C/C=C2\N(CCCCCC(=O)NCc3cn(-c4cccc(C(=O)N[C@@H](CCCCN)C(=O)COc5c(F)cccc5F)c4)nn3)c3ccc(S(=O)(=O)O)cc3C2(C)C)C(C)(C)c2cc(S(=O)(=O)O)ccc21 [Compound 70]	–	–	–	–	–	–	–	–	blocking of probe 15a binding to Kgp by preincubation [12]: blocked the binding of the probe 15a to Kgp
C[N+]1=C(/C=C/C=C/C=C2\N(CCCCCC(=O)NCc3cn(-c4cccc(C(=O)N[C@@H](CCCCN)C(=O)COc5c(F)cc(CNC(=O)C6CCN(S(=O)(=O)c7ccccc7-c7c8cc/c(=[N+]9\CCc%10cc(S(=O)(=O)O)ccc%109)cc-8oc8cc(N9CCc%10cc(S(=O)(=O)O)ccc%109)ccc78)CC6)cc5F)c4)nn3)c3ccc(S(=O)(=O)O)cc3C2(C)C)C(C)(C)c2cc(S(=O)(=O)O)ccc21 [Compound 71]	–	–	–	–	–	–	–	–	specificity of detection ([13]; W83 vs Kgp knockout strain): specific for Kgp; apparent limit of detection of Kgp ([13]; probe 1 μM): 500 CFU
CN(NC(=O)CC[C@H](NC(=O)OCc1ccccc1)C(=O)N[C@@H](CCCCN)C(=O)C(=O)NCc1ccccc1)c1ccccc1 [Kyt-36]	–	–	–	–	–	–	–	–	half-life [14]: increases the half-life
